Measurements taken from patent publication US4189499A, “Lysine 4-allyloxy-3-chlorophenylacetate and method of its preparation” (priority 1979, dated 1980).
Values joined by “and” are separate entries in the source; they are usually repeats but may differ in a detail not shown here. Equal entries are not always repeated. “Also recorded” adds a separate entry of the source. Where two headings read alike, the source gives them in different places.

Legend:
[1] = system: rabbit dorsal long muscle; assay: Local tolerability after intramuscular injection, muscle removed at 24 hours, irritation by arbitrary scores; type: in vivo; design: scale not given here
Description: Such a tolerability was estimated after injection of equivalent solutions of the various preparations, effected in the rabbit dorsal long muscle, removing muscle 24 hours after injection and estimating the degree of induced irritation through arbitrary scores.

rat leg = assay: Tolerability by volume increase of rat leg versus commercial injectable preparations; type: in vivo; settings: FIG. 1
From the text: This type of preparation was estimated also in comparison with commercially available injectable preparations according to the method of volume increase of rat leg and results are shown in FIG. 1 of the drawings.

[2] = Pharmacokinetics after i.v. injection in rabbits; type: in vivo, rabbit; settings: i.v. 90 mg/kg (as acid)
Description: (§1) The following pharmacological experimentation was carried out in order to estimate the comparative absorption and bioavailability through various administration routes in rabbits of Alclofenac acid and its lysine salt.

[3] = Pharmacokinetics from plasma levels after oral, rectal and intramuscular administration in rabbits; type: in vivo, rabbit
Description: as §1

[4] = Extent of availability after different routes, intravenous administration as reference; type: in vivo, rabbit
Description: as §1

Solubility = type: physicochemical; settings: in words, solvent as stated
[5] = Analgesic, antipyretic and antiinflammatory activity; type: in vivo; settings: versus the starting acid
[6] = General tolerability by route of administration; type: in vivo
[7] = Stability and hygroscopicity; type: physicochemical
pH of aqueous solution = type: physicochemical
[8] = 100 mg/ml (as acid), 0.5 ml injected
[9] = 131 mg/ml (as acid), 0.25 ml injected
[10] = individual, in order Rabbit I, II, III, IV, 90 mg/kg
[11] = INTRAMUSCOLAR 80 mg/kg, ± E.S.M.
[12] = P.OS 90 mg/kg, ± E.S.M., listed as Lysine Salt
[13] = P.OS 90 mg/kg, ± E.S.M., listed as Lysine Salt, 90 mg/kg
[14] = RECTAL 100 mg/kg, ± E.S.M., listed as Lysine Salt
[15] = RECTAL 100 mg/kg, ± E.S.M., listed as Lysine Salt, 100 mg/kg
[16] = rabbit, plasma, im, 80 mg/kg, INTRAMUSCOLAR 80 mg/kg, ± E.S.M.

Which “SCORES at 24 hours, Average” value [1, 8] does the source give for `C=CCOc1ccc(CC(=O)O)cc1Cl` [Alclofenac-Lysine, lysine 4-allyloxy-3-chlorophenylacetate] here?
Its value is 2.3.

What about the “SCORES at 24 hours, Average” value [1, 9] of the same compound?
Its value is 2.6.

And the “SCORES at 24 hours, individual” value [1, 8]?
The value was 2 (2×) and 3.

And the “SCORES at 24 hours, individual” value [1, 9]?
Its value is 2 and 3 and 4 (2×) and 0.

What about the “tolerability versus Mervan” value (rat leg) of the same compound?
The value was “better more tolerated than a commercially available preparation”.

And the A ([2]; MEAN ± S.E.M. of 4 rabbits)?
Its A is 165.7 ± 16.6 µg/mL.

And the B ([2]; MEAN ± S.E.M. of 4 rabbits)?
Its B is 293.5 ± 14.2 µg/mL.

What about the K12 ([2]; MEAN ± S.E.M. of 4 rabbits) of the same compound?
The K12 was 0.027 ± 0.003 min⁻¹.

What about the K21 ([2]; MEAN ± S.E.M. of 4 rabbits) of the same compound?
The K21 was 0.053 ± 0.009 min⁻¹.

And the α ([2]; MEAN ± S.E.M. of 4 rabbits)?
Its α is 0.082 ± 0.011 min⁻¹.

What about the A [2, 10] of the same compound?
Its A is 170.51 µg/mL and 151.04 µg/mL and 209.59 µg/mL and 131.86 µg/mL.

And the B [2, 10]?
The B was 269.19 µg/mL and 324.95 µg/mL and 269.89 µg/mL and 310.16 µg/mL.

What about the CL [2, 10] of the same compound?
Its CL is 0.56 mL/min/kg and 0.63 mL/min/kg and 0.36 mL/min/kg and 0.74 mL/min/kg.

And the K12 [2, 10]?
Its K12 is 0.030 min⁻¹ and 0.034 min⁻¹ and 0.028 min⁻¹ and 0.018 min⁻¹.

And the K21 [2, 10]?
Its K21 is 0.051 min⁻¹ and 0.078 min⁻¹ and 0.038 min⁻¹ and 0.047 min⁻¹.

What about the Kel [2, 10] of the same compound?
Its Kel is 0.0033 min⁻¹ and 0.0019 min⁻¹ and 0.0036 min⁻¹.

What about the Vdβ [2, 10] of the same compound?
Its Vdβ is 0.274 L/kg and 0.329 L/kg and 0.285 L/kg.

And the t1/2α [2, 10]?
Its t1/2α is 6 min and 10.5 min (2×).

And the t1/2β [2, 10]?
Its t1/2β is 6.8 h and 5.02 h and 10.5 h and 4.43 h.

And the α [2, 10]?
The α was 0.083 min⁻¹ and 0.113 min⁻¹ and 0.067 min⁻¹ and 0.066 min⁻¹.

And the β [2, 10]?
Its β is 0.0017 min⁻¹ and 0.0023 min⁻¹ and 0.0011 min⁻¹ and 0.0026 min⁻¹.

What about the k el ([2]; rabbit, in vivo, iv, 90 mg/kg, MEAN ± S.E.M. of 4 rabbits, read-out: β (converted)) of the same compound?
Its k el is 3.17e-05 s⁻¹.

And the clearance ([2]; rabbit, plasma, iv, 90 mg/kg, MEAN ± S.E.M. of 4 rabbits)?
The clearance was 0.57 ± 0.08 mL/min/kg.

And the k el ([2]; rabbit, plasma, iv, 90 mg/kg, MEAN ± S.E.M. of 4 rabbits, read-out: Kel (converted))?
Its k el is 4.83e-05 s⁻¹.

And the Vd ([2]; rabbit, plasma, iv, 90 mg/kg, MEAN ± S.E.M. of 4 rabbits, read-out: Vdβ)?
Its Vd is 0.304 ± 0.015 L/kg.

And the half-life ([2]; rabbit, plasma, iv, 90 mg/kg, MEAN ± S.E.M. of 4 rabbits, read-out: t1/2α)?
Its half-life is 0.15 ± 0.0167 h.

And the half-life ([2]; rabbit, plasma, iv, 90 mg/kg, MEAN ± S.E.M. of 4 rabbits, read-out: t1/2β)?
The half-life was 6.68 ± 1.35 h.

And the Vd ([2]; rabbit, plasma, iv, 90 mg/kg, MEAN ± S.E.M. of 4 rabbits, read-out: √1)?
The Vd was 0.196 ± 0.005 L/kg.

What about the Vd ([2]; rabbit, plasma, iv, 90 mg/kg, MEAN ± S.E.M. of 4 rabbits, read-out: √2) of the same compound?
The Vd was 0.392 ± 0.06 L/kg.

What about the k el ([2]; rabbit, plasma, iv, 90 mg/kg, individual, in order Rabbit I, II, III, IV, read-out: Kel (converted)) of the same compound?
The k el was 4.5e-05 s⁻¹.

And the Vd ([2]; rabbit, plasma, iv, 90 mg/kg, individual, in order Rabbit I, II, III, IV, read-out: Vdβ)?
The Vd was 0.33 L/kg.

And the half-life ([2]; rabbit, plasma, iv, 90 mg/kg, individual, in order Rabbit I, II, III, IV, read-out: t1/2α)?
Its half-life is 0.142 h.

And the Vd ([2]; rabbit, plasma, iv, 90 mg/kg, individual, in order Rabbit I, II, III, IV, read-out: √1)?
The Vd was 0.205 L/kg.

And the Ka [3, 11]?
Its Ka is 0.0131 ± 0.0031 min⁻¹.

What about the t1/2α [3, 11] of the same compound?
Its t1/2α is 1 ± 0.183 h.

And the Ka [3, 12]?
Its Ka is 0.0174 ± 0.0047 min⁻¹.

What about the t1/2α [3, 12] of the same compound?
Its t1/2α is 0.616667 ± 0.13333 h.

And the Cmax [3, 13]?
Its Cmax is 454.5 ± 152.2 µg/mL.

And the Kel [3, 13]?
The Kel was 0.0023 ± 0.0005 min⁻¹.

And the Tmax [3, 13]?
The Tmax was 2.18 ± 0.467 h.

And the Vdβ [3, 13]?
Its Vdβ is 0.301 ± 0.050 L/kg.

What about the t1/2β [3, 13] of the same compound?
Its t1/2β is 6.28 ± 1.53 h.

What about the Ka [3, 14] of the same compound?
Its Ka is 0.132 ± 0.032 min⁻¹.

And the t1/2α [3, 14]?
The t1/2α was 0.13 ± 0.05 h.

What about the CL [3, 15] of the same compound?
Its CL is 0.55 ± 0.03 mL/kg.

What about the Cmax [3, 15] of the same compound?
The Cmax was 473.7 ± 24.1 µg/mL.

What about the Kel [3, 15] of the same compound?
Its Kel is 0.0026 ± 0.0004 min⁻¹.

What about the Tmax [3, 15] of the same compound?
The Tmax was 0.65 ± 0.183 h.

What about the Vdβ [3, 15] of the same compound?
Its Vdβ is 0.248 ± 0.072 L/kg.

What about the t1/2β [3, 15] of the same compound?
Its t1/2β is 4.47 ± 1.18 h.

And the “intramuscular absorption velocity, in words” value ([3]; intramuscular, versus per os)?
Its value is “may be compared with that per os”.

And the “intramuscular blood levels, in words” value ([3]; intramuscular, versus per os)?
The value was “instantaneous and sustained blood levels are lower”.

What about the absorption velocity ([3]; oral and rectal route) of the same compound?
Its absorption velocity is “higher absorption velocity even through the oral and rectal route”.

And the “absorption, in words” value ([3]; oral and rectal route, rabbits, listed as Lysine Salt)?
The value was “absorbed faster and to a higher extent in comparison with the acidic substance”.

And the CL/F [3, 16]?
Its CL/F is 0.67 ± 0.06 mL/min/kg.

And the k el [3, 16]?
The k el was 1.17e-05 s⁻¹.

And the Cmax ([3]; rabbit, plasma, im, 80 mg/kg, INTRAMUSCOLAR 80 mg/kg, ± E.S.M., read-out: Cmax)?
The Cmax was 144 ± 30 µg/mL.

And the Vd/F ([3]; rabbit, plasma, im, 80 mg/kg, INTRAMUSCOLAR 80 mg/kg, ± E.S.M., read-out: Vdβ)?
The Vd/F was 0.607 ± 0.09 L/kg.

And the half-life ([3]; rabbit, plasma, im, 80 mg/kg, INTRAMUSCOLAR 80 mg/kg, ± E.S.M., read-out: t1/2β)?
The half-life was 23.4 ± 6.3 h.

And the Tmax ([3]; rabbit, plasma, im, 80 mg/kg, INTRAMUSCOLAR 80 mg/kg, ± E.S.M., read-out: tmax (converted))?
The Tmax was 4.62 h.

What about the “% Availability (AUC o → 2h)” value ([4]; I.V. 90 mg/kg, 0-2 h, reference) of the same compound?
Its value is 100%.

What about the “% Availability (AUC o → 4h)” value ([4]; I.V. 90 mg/kg, 0-4 h, reference) of the same compound?
Its value is 100%.

What about the “% Availability (practical AUC)” value ([4]; I.V. 90 mg/kg, reference) of the same compound?
The value was 100%.

And the “% Availability (theoretical AUC)” value ([4]; I.V. 90 mg/kg, reference)?
The value was 100%.

What about the bioavailability at 2 h ([4]; rabbit, plasma, 100 mg/kg, Rectal 100 mg/kg, 0-2 h, i.v. as reference, read-out: % Availability (AUC o → 2h)) of the same compound?
The bioavailability at 2 h was 95.7%.

And the bioavailability ([4]; rabbit, plasma, 100 mg/kg, Rectal 100 mg/kg, i.v. as reference, read-out: % Availability (practical AUC))?
Its bioavailability is 100%.

What about the bioavailability ([4]; rabbit, plasma, 100 mg/kg, Rectal 100 mg/kg, i.v. as reference, read-out: % Availability (theoretical AUC)) of the same compound?
Its bioavailability is 89.2%.

And the bioavailability ([4]; rabbit, plasma, im, 80 mg/kg, I.M. 80 mg/kg, i.v. as reference, read-out: % Availability (practical AUC))?
The bioavailability was 95.4%.

What about the bioavailability ([4]; rabbit, plasma, im, 80 mg/kg, I.M. 80 mg/kg, i.v. as reference, read-out: % Availability (theoretical AUC)) of the same compound?
The bioavailability was 155%.

And the bioavailability at 4 h ([4]; rabbit, plasma, po, 90 mg/kg, P.O. 90 mg/kg, 0-4 h, i.v. as reference, read-out: % Availability (AUC o → 4h))?
The bioavailability at 4 h was 58.1%.

And the bioavailability ([4]; rabbit, plasma, po, 90 mg/kg, P.O. 90 mg/kg, i.v. as reference, read-out: % Availability (practical AUC))?
Its bioavailability is 88.5%.

What about the bioavailability ([4]; rabbit, plasma, po, 90 mg/kg, P.O. 90 mg/kg, i.v. as reference, read-out: % Availability (theoretical AUC)) of the same compound?
The bioavailability was 82.7%.

What about the Solubility (Solubility) of the same compound?
The Solubility was “soluble in biological fluids; also recorded: extremely soluble in water and alcohols; also recorded: insoluble in acetone”.

What about the Solubility (Solubility; listed as compound (1)) of the same compound?
Its Solubility is “very soluble in water and alcohols; also recorded: insoluble in acetone”.

What about the “analgesic, antipyretic and antiinflammatory properties” value [5] of the same compound?
The value was “equal or even superior to those of the starting acid”.

What about the tolerability on injection ([6]; intravenous or intramuscular) of the same compound?
Its tolerability on injection is “well tolerated after either intravenous or intramuscular administration”.

And the tolerability per os ([6]; oral)?
The tolerability per os was “better tolerated per os; also recorded: better tolerance”.

And the “Stability of the solution” value ([7]; in words, listed as compound (1))?
Its value is “perfectly stable”.

And the Hygroscopicity ([7]; isolated solid)?
Its Hygroscopicity is “non-hygroscopic”.

What about the “pH value of the 10% aqueous solution” value (pH of aqueous solution; 10% aqueous solution) of the same compound?
The value was 7.7.

What about the “pH of 25% parts/volume aqueous solution” value (pH of aqueous solution; 25% parts/volume, specification) of the same compound?
Its value is 7.4-7.8.
